In ChEMBL document CHEMBL4041518, “Novel tacrine-1,2,3-triazole hybrids: In vitro, in vivo biological evaluation and docking study of cholinesterase inhibitors” (Eur J Med Chem, 2017):
Activity calls are given as the source filed them. The calls are words filed in the database; no cut-off is given here.

Key:
PC-12 [1] = test: Neuroprotective activity against H2O2-induced cell death in rat PC12 cells assessed as cell viability at 50 uM preincubated for 3 hrs followed by H2O2 addition measured after 24 hrs by MTT assay relative to control; format: functional; conditions: read-out: Activity
[2] = Antioxidant activity assessed as DPPH radical scavenging activity incubated under dark condition for 30 mins by UV-Visible spectrophotometric method; format: functional
Rattus norvegicus [3] = test: (§1) Reversal of scopolamine-induced memory impairment in Wistar albino rat assessed as change in swimming speed during 4 days training period at 5 to 20 mg/kg, ip administered 60 mins prior to test for 4 consecutive days followed by scopolamine challenge 30 mins prior to test by Morris water maze test; format: functional, organism-based
Rattus norvegicus [4] = test: as §1, with “decrease” for “change”, “traveled distance” for “swimming speed”; format: functional, organism-based
Rattus norvegicus [5] = test: as §1, with “decrease” for “change”, “escape latency time” for “swimming speed”; format: functional, organism-based
[6] = target: Cholinesterase (Equus caballus) (UniProt P81908); test: Potency index, ratio of rivastigmine IC50 to compound IC50 for equine serum BuChE
Chain of Cholinesterase (Equus caballus) (P81908 whole entry): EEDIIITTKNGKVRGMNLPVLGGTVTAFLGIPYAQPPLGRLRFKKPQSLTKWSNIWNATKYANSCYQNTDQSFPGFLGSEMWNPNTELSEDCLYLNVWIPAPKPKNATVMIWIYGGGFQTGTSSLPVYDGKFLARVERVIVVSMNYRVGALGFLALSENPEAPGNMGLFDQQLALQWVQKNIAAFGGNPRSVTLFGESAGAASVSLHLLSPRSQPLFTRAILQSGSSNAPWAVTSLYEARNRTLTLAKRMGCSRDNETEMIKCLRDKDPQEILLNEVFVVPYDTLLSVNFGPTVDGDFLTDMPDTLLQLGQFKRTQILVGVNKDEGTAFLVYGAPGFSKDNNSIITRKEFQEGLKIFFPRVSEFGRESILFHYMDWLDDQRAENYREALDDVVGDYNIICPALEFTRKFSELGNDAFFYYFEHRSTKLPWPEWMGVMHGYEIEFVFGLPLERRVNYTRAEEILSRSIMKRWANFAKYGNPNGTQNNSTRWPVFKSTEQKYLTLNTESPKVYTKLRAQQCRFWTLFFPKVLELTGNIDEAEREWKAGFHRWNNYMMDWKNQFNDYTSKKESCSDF

PC-12 [7] = test: Neuroprotective activity against H2O2-induced cell death in rat PC12 cells assessed as cell viability at 100 uM preincubated for 3 hrs followed by H2O2 addition measured after 24 hrs by MTT assay relative to control; format: functional; conditions: read-out: Activity
Cholinesterase [8] = target: T1, Cholinesterase (Equus caballus, UniProt P81908)
T1 sequence (P81908 whole entry): as above
Description: Inhibition of equine serum BuChE using butyrylthiocholine iodide as substrate preincubated for 15 mins followed by substrate addition measured after 20 mins by Ellman's method

MDA-MB-231 = test: cells; conditions: Homo sapiens, MDA-MB-231, 72 h
Description: Cytotoxicity against human MDA-MB-231 cells assessed as reduction in cell viability after 72 hrs by MTT assay

Acetylcholinesterase [9] = target: T2, Acetylcholinesterase (Electrophorus electricus, UniProt O42275)
T2 sequence (O42275 whole entry): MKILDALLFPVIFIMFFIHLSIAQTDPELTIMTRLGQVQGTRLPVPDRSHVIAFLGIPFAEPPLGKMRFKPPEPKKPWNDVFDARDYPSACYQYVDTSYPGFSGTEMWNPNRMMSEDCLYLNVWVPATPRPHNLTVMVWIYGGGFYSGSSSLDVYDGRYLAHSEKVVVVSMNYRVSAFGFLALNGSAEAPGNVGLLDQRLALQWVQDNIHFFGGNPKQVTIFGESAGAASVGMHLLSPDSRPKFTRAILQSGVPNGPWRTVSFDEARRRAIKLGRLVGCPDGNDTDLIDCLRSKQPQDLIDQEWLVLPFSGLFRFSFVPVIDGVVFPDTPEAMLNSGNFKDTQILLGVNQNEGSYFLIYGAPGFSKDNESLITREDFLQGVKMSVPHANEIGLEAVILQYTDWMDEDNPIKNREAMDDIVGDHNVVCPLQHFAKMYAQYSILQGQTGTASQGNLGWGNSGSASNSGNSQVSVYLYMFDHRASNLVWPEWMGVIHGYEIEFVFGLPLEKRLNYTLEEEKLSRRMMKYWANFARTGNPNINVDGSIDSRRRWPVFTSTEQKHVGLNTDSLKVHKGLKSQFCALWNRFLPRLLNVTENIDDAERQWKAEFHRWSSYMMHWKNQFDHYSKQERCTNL
Description: Inhibition of electric eel AChE using acetylthiocholine iodide as substrate preincubated for 15 mins followed by substrate addition measured after 20 mins by Ellman's method

MCF7 = test: cells; conditions: Homo sapiens, MCF7, 72 h
Description: Cytotoxicity against human MCF7 cells assessed as reduction in cell viability after 72 hrs by MTT assay

T47D = test: cells; conditions: Homo sapiens, 72 h
Description: Cytotoxicity against human T47D cells assessed as reduction in cell viability after 72 hrs by MTT assay

PC-12 [10] = test: Neuroprotective activity against H2O2-induced cell death in rat PC12 cells assessed as cell viability at 10 uM preincubated for 3 hrs followed by H2O2 addition measured after 24 hrs by MTT assay relative to control; format: functional; conditions: read-out: Activity
[11] = target: Acetylcholinesterase (Electrophorus electricus) (UniProt O42275); test: Potency index, ratio of rivastigmine IC50 to compound IC50 for electric eel AChE
Chain of Acetylcholinesterase (Electrophorus electricus) (O42275 24-633 limits assumed): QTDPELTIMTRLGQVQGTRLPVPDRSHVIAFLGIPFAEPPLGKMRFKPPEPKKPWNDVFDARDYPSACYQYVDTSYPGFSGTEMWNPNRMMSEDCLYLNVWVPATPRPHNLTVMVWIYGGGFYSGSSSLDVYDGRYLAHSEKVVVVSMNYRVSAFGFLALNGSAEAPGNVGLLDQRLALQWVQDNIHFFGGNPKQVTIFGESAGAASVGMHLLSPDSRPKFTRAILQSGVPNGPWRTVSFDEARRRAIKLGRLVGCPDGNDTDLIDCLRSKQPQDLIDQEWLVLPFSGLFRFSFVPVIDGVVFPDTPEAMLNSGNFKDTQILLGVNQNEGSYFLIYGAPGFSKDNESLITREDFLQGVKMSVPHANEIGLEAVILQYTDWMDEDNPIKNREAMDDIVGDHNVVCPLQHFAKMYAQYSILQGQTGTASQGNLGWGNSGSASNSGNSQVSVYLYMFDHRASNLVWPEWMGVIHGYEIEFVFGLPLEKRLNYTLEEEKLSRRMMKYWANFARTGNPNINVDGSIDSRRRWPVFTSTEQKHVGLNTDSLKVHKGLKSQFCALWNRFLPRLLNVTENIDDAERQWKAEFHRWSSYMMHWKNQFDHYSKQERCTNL

Acetylcholinesterase [12] = target: T2, Acetylcholinesterase; test: Mixed-type inhibition of electric eel AChE using acetylthiocholine iodide as substrate preincubated for 15 mins followed by substrate addition measured after 20 mins by Lineweaver-Burk plot analysis
Rattus norvegicus [13] = test: Reversal of scopolamine-induced memory impairment in Wistar albino rat assessed as increase in time spent in target quadrant at 5 to 20 mg/kg, ip administered for 4 consecutive days 60 mins prior to test followed by scopolamine challenge 30 mins prior to test measured on day 5 by Morris water maze test; format: functional, organism-based
Cholinesterase [14] = target: T1, Cholinesterase; test: Mixed-type inhibition of equine serum BuChE using butyrylthiocholine iodide as substrate preincubated for 15 mins followed by substrate addition measured after 20 mins by Lineweaver-Burk plot analysis

Compound | viability at 50 µM (PC-12 [1]) [%] | Activity [2] | Activity (Rattus norvegicus [3]) | Activity (Rattus norvegicus [4]) | Activity (Rattus norvegicus [5]) | Ratio IC50 [6] | viability at 100 µM (PC-12 [7]) [%] | IC50 (Cholinesterase [8]) [nM] | IC50 (MDA-MB-231) [nM] | IC50 (Acetylcholinesterase [9]) [nM] | IC50 (MCF7) [nM] | IC50 (T47D) [nM] | viability at 10 µM (PC-12 [10]) [%] | Ratio IC50 [11] | Ki (Acetylcholinesterase [12]) [nM] | Activity (Rattus norvegicus [13]) | Ki (Cholinesterase [14]) [nM]
COc1ccc(Cn2cc(CNc3c4c(nc5ccc(Cl)cc35)CCCC4)nn2)cc1 | 73.5 | inactive | inactive | Active | Active | 2 to 140 | 74.8 | 1850 | > 100000 | 521 | > 100000 | > 100000 | 65.4 | 3 to 21 | 940 | Active | 
Clc1ccc(Cn2cc(CNc3c4c(nc5ccccc35)CCCC4)nn2)cc1 |  | inactive |  |  |  | 2 to 140 |  | 151 |  | 1970 |  |  |  | 3 to 21 |  |  | 
COc1ccc(Cn2cc(CNc3c4c(nc5cc(Cl)ccc35)CCCC4)nn2)cc1 |  |  |  |  |  | 2 to 140 |  | 115 |  | 737 |  |  |  | 3 to 21 |  |  | 
COc1ccc(Cn2cc(CNc3c4c(nc5ccccc35)CCCC4)nn2)cc1 |  |  |  |  |  | 2 to 140 |  | 55 | > 100000 | 2000 | > 100000 | 94100 |  | 3 to 21 |  |  | 121
Clc1ccc2nc3c(c(NCc4cn(Cc5ccccc5)nn4)c2c1)CCCC3 |  |  |  |  |  | 2 to 140 |  | > 5000 |  | 2390 |  |  |  | 3 to 21 |  |  | 
Fc1ccc(Cn2cc(CNc3c4c(nc5ccccc35)CCCC4)nn2)cc1 |  |  |  |  |  | 2 to 140 |  | 59 | > 100000 | 2380 | > 100000 | > 100000 |  | 3 to 21 |  |  | 
Cc1ccc(Cn2cc(CNc3c4c(nc5ccc(Cl)cc35)CCCC4)nn2)cc1 |  | inactive |  |  |  | 2 to 140 |  | 747 |  | 768 |  |  |  | 3 to 21 |  |  | 
Clc1ccc(Cn2cc(CNc3c4c(nc5ccc(Cl)cc35)CCCC4)nn2)cc1 |  |  |  |  |  | 2 to 140 |  | 3940 |  | 1960 |  |  |  | 3 to 21 |  |  | 
Cc1ccc(Cn2cc(CNc3c4c(nc5ccccc35)CCCC4)nn2)cc1 |  |  |  |  |  | 2 to 140 |  | 72 |  | 621 |  |  |  | 3 to 21 |  |  | 
Fc1ccc(Cn2cc(CNc3c4c(nc5cc(Cl)ccc35)CCCC4)nn2)cc1 |  |  |  |  |  | 2 to 140 |  | 216 | 83400 | 2280 | 87500 | 80000 |  | 3 to 21 |  |  | 
Clc1ccc(Cn2cc(CNc3c4c(nc5cc(Cl)ccc35)CCCC4)nn2)cc1 |  |  |  |  |  | 2 to 140 |  | > 5000 |  | 983 |  |  |  | 3 to 21 |  |  | 
c1ccc(Cn2cc(CNc3c4c(nc5ccccc35)CCCC4)nn2)cc1 |  |  |  |  |  | 2 to 140 |  | 180 | 81400 | 3300 | 97100 | 62900 |  | 3 to 21 |  |  | 
Cc1ccc(Cn2cc(CNc3c4c(nc5cc(Cl)ccc35)CCCC4)nn2)cc1 |  |  |  |  |  | 2 to 140 |  | 65 |  | 1110 |  |  |  | 3 to 21 |  |  | 
Clc1ccc2c(NCc3cn(Cc4ccccc4)nn3)c3c(nc2c1)CCCC3 |  |  |  |  |  | 2 to 140 |  | 197 | > 100000 | 2320 | > 100000 | 97300 |  | 3 to 21 |  |  | 
Fc1ccc(Cn2cc(CNc3c4c(nc5ccc(Cl)cc35)CCCC4)nn2)cc1 |  |  |  |  |  | 2 to 140 |  | 721 |  | 1440 |  |  |  | 3 to 21 |  |  | 
